Experimental findings from ChEMBL document CHEMBL4342418, “1,2,3-Triazole-containing hybrids as potential anticancer agents: Current developments, action mechanisms and structure-activity relationships” (Eur J Med Chem, 2019) are described below.

In brackets after ≈: the same amount, converted by molar mass.

Assay [1] relates to A549. The experiment in a line: Antiproliferative activity against human A549 cells assessed as reduction in cell viability after 48 hrs by MTT assay. In kind it is functional, cell-based. Conditions: A549, 48 h. A general note: Tetrazolium dyes change colour on reduction, which living cells bring about.
For assay [2], the system named is DU-145. In words: Antiproliferative activity against human DU145 cells assessed as reduction in cell viability after 48 hrs by MTT assay. In kind it is functional, cell-based. Conditions: DU-145, 48 h.
Assay [3] has as its system HT-29. The experiment in a line: Antiproliferative activity against human HT-29 cells assessed as reduction in cell viability after 48 hrs by MTT assay. Format: functional, cell-based. Conditions: HT-29, 48 h.
Assay [4] concerns MCF7. The experiment in a line: cells. To be noted: Homo sapiens. In kind it is functional, cell-based.
Description: Antiproliferative activity against human MCF7 cells by MTT assay
For assay [5], the system named is HCT-116. The experiment in a line: Antiproliferative activity against human HCT116 cells by MTT assay. In kind it is functional, cell-based.
The subject of assay [6] is HepG2. The experiment in a line: Antiproliferative activity against human HepG2 cells by MTT assay. In kind it is functional, cell-based.
Assay [7] relates to MCF7. The experiment in a line: Antiproliferative activity against human MCF7 cells assessed as reduction in cell viability after 72 hrs by MTT assay. Format: functional, cell-based. Conditions: MCF7, 72 h.
Assay [8] relates to T47D. The experiment in a line: Antiproliferative activity against human T47D cells assessed as reduction in cell viability after 72 hrs by MTT assay. In kind it is functional, cell-based.
The subject of assay [9] is MCF7. The experiment in a line: Antiproliferative activity against human MCF7 cells assessed as reduction in cell viability after 48 hrs by MTT assay. In kind it is functional, cell-based. Conditions: MCF7, 48 h.
Assay [10] has as its system SW480. The experiment in a line: Antiproliferative activity against human SW480 cells assessed as reduction in cell viability after 48 hrs by MTT assay. In kind it is functional, cell-based. To be noted: SW480, 48 h.
A short description of assay [11]: Antiproliferative activity against human SMCC7721 cells assessed as reduction in cell viability after 48 hrs by MTT assay. Format: functional, cell-based.
For assay [12], the system named is MDA-MB-231. The experiment in a line: Antiproliferative activity against human MDA-MB-231 cells by MTT assay. In kind it is functional, cell-based.
Assay [13] deals with MCF-10A. In words: Cytotoxicity against human MCF10A cells by MTT assay. In kind it is cell-based.
For assay [14], the system named is HCT-116. In words: Antiproliferative activity against human HCT116 cells assessed as reduction in cell viability after 48 hrs by MTT assay. Format: functional, cell-based. Conditions: HCT-116, 48 h.
For assay [15], the system named is T47D. In words: Antiproliferative activity against human T47D cells assessed as reduction in cell viability after 48 hrs by MTT assay. Format: functional, cell-based.
For assay [16], the system named is Caco-2. The experiment in a line: Antiproliferative activity against human Caco2 cells assessed as reduction in cell viability after 48 hrs by MTT assay. In kind it is functional, cell-based. Conditions: Caco-2, 48 h.
The subject of assay [17] is SK-BR-3. In words: Antiproliferative activity against human SKBR3 cells assessed as reduction in cell viability after 72 hrs by MTT assay. Format: functional, cell-based. Conditions: SK-BR-3, 72 h.
Assay [18] concerns SUM-159-PT. The experiment in a line: Antiproliferative activity against human SUM159 cells assessed as reduction in cell viability after 72 hrs by MTT assay. In kind it is functional, cell-based.
Assay [19] concerns KG-1a. In words: Antiproliferative activity against human KG1a cells assessed as reduction in cell viability after 72 hrs by MTT assay. In kind it is functional, cell-based.
Assay [20] has as its system DU-145. The experiment in a line: Antiproliferative activity against human DU145 cells by SRB assay. In kind it is functional, cell-based. On the technique in general: Sulforhodamine B stains cellular protein and so reports cell mass.
Assay [21] deals with HeLa. In words: Antiproliferative activity against human HeLa cells by SRB assay. Format: functional, cell-based.
Assay [22] has as its system MDA-MB-231. In words: Antiproliferative activity against human MDA-MB-231 cells by SRB assay. Format: functional.
In assay [23] the test system is HepG2. The experiment in a line: Antiproliferative activity against human HepG2 cells by SRB assay. In kind it is functional, cell-based.
In assay [24] the test system is A549. The experiment in a line: Antiproliferative activity against human A549 cells by SRB assay. Format: functional, cell-based.
For assay [25], the system named is MGC-803. The experiment in a line: Antiproliferative activity against human MGC803 cells by MTT assay. In kind it is functional, cell-based.
The test system of assay [26] is SK-N-SH. In words: Antiproliferative activity against human SK-N-SH cells by MTT assay. Format: functional, cell-based.

For `O=C(c1cn(Cc2cccc(Oc3ccccc3)c2)nn1)c1cccnc1Nc1ccc(F)cc1`, the IC50 in assay [1], in [2] and in assay [3] was 0.1 to 1.1 µM each time.

For `CC(=O)N1N=C(c2nnn(-c3ccc(-n4nnc(C5=NN(C(C)=O)C(c6ccccc6)C5)c4C)cc3)c2C)CC1c1ccccc1` (centres undefined), the IC50 – broadly, the point on the concentration scale where inhibition reaches its midpoint – in [4] was 66.8 µg/mL; in [5], greater than 100 µg/mL; in [6], greater than 100 µg/mL.

For `O=C(NCc1cn(Cc2ccc(F)cc2)nn1)c1cc(-c2ccccc2)on1`, the GI50 in assay [7] and in assay [8] was 27.7 to 85.7 µg/mL (≈ 73.4 to 227 µM) each time.

For the compound `COc1cc([C@@H]2c3cc4c(cc3[C@H](n3cc(CO[C@@H]5O[C@H](CO[C@@H]6O[C@H](CO)[C@@H](O)[C@H](O)[C@H]6O)[C@@H](O)[C@H](O)[C@H]5O)nn3)[C@H]3COC(=O)[C@H]23)OCO4)cc(OC)c1OC`, the IC50 in [9], in assay [1], in [10] and in assay [11] was 0.67 to 7.41 µM each time.

As to `Cc1c(C(F)(F)F)cc(Cl)c(Cl)c1-n1nnc(-c2nn(-c3ccccc3)cc2C=O)c1C`, the IC50 in assay [4] was in the range of 6.8 to 27.6 µM; in assay [12], 6.8 to 27.6 µM; in [13] it was 21.9 to 25.3 µM.

For the compound `O=C(Cn1cc(C(O)c2ccccc2)nn1)N1CCN(c2nc3ccccc3s2)CC1` (centres undefined), the IC50 in assay [9], in assay [14], in assay [15] and in assay [16] was 33 to 154 µM in each case.

With `CN1CCN(Cc2cn(-c3ccc4ncnc(Nc5ccc(OCc6cccc(F)c6)c(Cl)c5)c4c3)nn2)CC1`, the concentration for half-maximal inhibition (IC50) in assay [17], in assay [18] and in assay [19] was 2.06 to 7.47 µM in each case.

With `CCCN1CCC(NCc2cn(-c3ccc4ncnc(Nc5ccc(OCc6cccc(F)c6)c(Cl)c5)c4c3)nn2)CC1`, the IC50 in assay [17], in [18] and in assay [19] was 2.06 to 7.47 µM each time.

For the compound `O=c1oc(-c2ccccc2)nn1Cc1cn(Cc2ccccc2)nn1`, the GI50 in [20], in [21], in [22] and in assay [23] was 0.82 to 2.39 µM each time.

For the compound `COc1ccc(/C=C/C(=O)c2cc(OC)c(OC)c(OC)c2)cc1OCc1cn(Cc2ccc(N)cc2)nn1`, the GI50 in [20], in assay [21], in assay [23] and in assay [24] was 1.3 to 8.2 µM in each case.

As for `Cc1c(C2=NN(C(=S)NCc3ccccc3)C(c3ccccc3)C2)nnn1-c1ccc(-n2nnc(C3=NN(C(=S)NCc4ccccc4)C(c4ccccc4)C3)c2C)cc1` (centres undefined), the IC50 in [4] is 43.5 µg/mL; in assay [5] it was greater than 100 µg/mL; in assay [6], greater than 100 µg/mL.

For `COc1cc(/C=C/C(=O)c2ccc(OCCCn3cc(CSc4nnnn4C)nn3)cc2)cc(OC)c1OC`, the IC50 in assay [6], in assay [25] and in [26] was 1.52 to 10.4 µM throughout.

Consider `Cc1ccc(-c2nn(Cc3cn(Cc4ccccc4F)nn3)c(=O)o2)cc1`, for which the concentration for 50% growth inhibition (GI50) in assay [20], in [21], in assay [22] and in [23] was 0.82 to 2.39 µM in each case.

In the case of `O=C(Cn1cc(C(O)(c2ccccc2)c2ccccc2)nn1)N1CCN(c2nc3ccccc3s2)CC1`, the IC50 in [9], in assay [14], in assay [15] and in assay [16] was 33 to 154 µM in each case.

Take `CNC(=S)N1N=C(c2nnn(-c3ccc(-n4nnc(C5=NN(C(=S)NC)C(c6ccccc6)C5)c4C)cc3)c2C)CC1c1ccccc1` (centres undefined): the IC50 in assay [4] was 3.46 µg/mL; in assay [5] it was greater than 100 µg/mL; in assay [6] it was greater than 100 µg/mL.

As for `O=C(Cn1cc(CCCO)nn1)N1CCN(c2nc3ccccc3s2)CC1`, the IC50 in assay [9], in assay [14], in assay [15] and in assay [16] was 33 to 48 µM each time.
